Measurements reported in patent US8022103B2, “Ester prodrugs of prostratin and related phorbol compounds” (Salvia Sciences, Inc., priority 2005, dated 2011).
Values after ≈ are worked out from the molar mass of the structure shown. Read-outs that look alike come from different tables or passages of the source.

Legend:
Format in all cases: cell-based
[1] = test system: human monocytes/macrophages; assay: MTS staining for macrophage viability (cytotoxicity)
Experimental: Anti-HIV efficacy evaluation in human monocyte/macrophages. Following 6 to 14 days in culture, the monocyte/macrophages cultures were washed 3 times to remove any non-adherent cells, and serially diluted test compounds were added followed by the addition of a pre-titered amount of HIV. Cultures were washed a final time by media removal 24 h post infection, fresh compound added and the cultures continued for an additional six days. Assays were performed using a standardized microtiter plate format developed by the Infectious Disease Research Department of Southern Research Institute. […] At assay termination, virus replication was measured by collecting cell-free supernatant samples, which were analyzed for HIV p24 antigen content using a commercially available p24 ELISA assay (Coulter). Following removal of supernatant samples, compound cytotoxicity was measured by addition of MTS to the plates for determination of cell viability. […]
MTS staining for macrophage viability to measure cytotoxicity. At assay termination, the assay plates were stained with the soluble tetrazolium-based dye MTS (CellTiter Reagent, Promega) to determine cell viability and quantify compound cytotoxicity. MTS is metabolized by the mitochondrial enzymes of metabolically active cells to yield a soluble formazan product, allowing the rapid quantitative analysis of cell viability and compound cytotoxicity. […]

HCV RNA replicon = HCV RNA replicon luciferase assay
Experimental: Compounds SA-101A and SA-101B were evaluated for their effect on HCV RNA replicons using an in vitro HCV virus replication system.
Compound preparation. Compounds were prepared as a powder (˜1 mg) and solubilized in DMSO. IFNα was used as a positive antiviral control.
HCV RNA replicon system. The assay for HCV replication employed cell line ET (luc-ubi-neo/ET), which is a human Huh7 hepatoma cell line that contains an HCV RNA replicon with a stable luciferase (Luc) reporter and three cell culture-adaptive mutations (Pietschmann et al., 2002, J. Virol. 76:4008-4021). […]
Luciferase assay. […] Compound IC50 and IC90 values (antiviral activity) are derived from plots of HCV RNA levels assessed as HCV RNA replicon-derived Luc activity versus drug concentration using Steady-Glo assay reagent (Promega), with Luc luminescence read on a 1450 Microbeta liquid scintillation and luminescence counter. Compound TC50 and TC90 values (cytotoxicity) are calculated from plots of cell number vs. drug concentration using data from the CytoTox-ONE cell proliferation assay (Promega); with fluorescence read using an Analyst HT fluorometer. […] Compound selectivity indices (SI=TC/IC) SI50 and SI90 values are calculated from spreadsheets.

[2] = test system: cell line ET (luc-ubi-neo/ET), human Huh7 hepatoma; assay: CytoTox-ONE cytotoxicity in ET (luc-ubi-neo/ET) Huh7 cells
Experimental: Luciferase assay. The ET cell line is grown in Dulbecco's modified essential media (DMEM), 10% fetal bovine serum (FBS), 1% penicillin-streptomycin (pen-strep), 1% glutamine, […] G418 in a 5% CO2 incubator at 37° C. All cell culture reagents are from Gibco Life Technologies. Cells are trypsinized (1% trypsin:EDTA) and plated out at 5×10^3 cells/well in white 96-well assay plates (Costar) dedicated to cell number (cytotoxicity) or antiviral activity (Luc) assessments. Drugs are added at five half-log concentrations each and the assay is run in DMEM, 5% FBS, 1% pen-strep, 1% glutamine. Human interferon alpha-2b (PBL Biolabs, New Brunswick, N.J.) is included in each run as a positive control compound. […] Compound IC50 and IC90 values (antiviral activity) are derived from plots of HCV RNA levels assessed as HCV RNA replicon-derived Luc activity versus drug concentration using Steady-Glo assay reagent (Promega), with Luc luminescence read on a 1450 Microbeta liquid scintillation and luminescence counter. Compound TC50 and TC90 values (cytotoxicity) are calculated from plots of cell number vs. drug concentration using data from the CytoTox-ONE cell proliferation assay (Promega); with fluorescence read using an Analyst HT fluorometer. […] Compound selectivity indices (SI=TC/IC) SI50 and SI90 values are calculated from spreadsheets.

HepG2-2.2.15 cells = assay: Dye uptake cell viability in HepG2-2.2.15 cells; details: at the concentrations evaluated
Experimental: HepG2 2.2.15 Antiviral Assay. The assay developed is similar to that described ion the literature (Korba et al., 1991, Antiviral Res. 15: 217-228; Korba et al., 1992, Antiviral Res. 19: 55-70) with the exception that viral DNA detection and quantification have been improved and simplified (Buckwold et al., 2004, Antiviral Res. 61(1): 57-62). Briefly, HepG2-2.2.15 cells are plated in 96-well microtiter plates. Only the interior wells are utilized to reduce “edge effects” observed during cell culture; the exterior wells are filled with complete medium to help minimize sample evaporation. After 16-24 hours the confluent monolayer of HepG2-2.2.15 cells is washed and the medium is replaced with complete medium containing various concentrations of a test compound in triplicate. […] Six days following the initial administration of the test compound, the cell culture supernatant is collected, treated with pronase and DNAse and then used in a real-time quantitative TaqMan PCR assay. The PCR-amplified HBV DNA is detected in real-time by monitoring increases in fluorescence signals that result from the exonucleolytic degradation of a quenched fluorescent probe molecule that hybridizes to the amplified HBV DNA. […] Antiviral activity is calculated from the reduction in HBV DNA levels (IC50). […] The therapeutic index (TI) is calculated as TC50/IC50.

Row | SMILES | TC50 [1] | Inhibition of HCV RNA replicon associated luciferase activity (HCV RNA replicon; lowest concentrations employed in the assay) | Cytotoxicity [2] | Cytotoxicity (HepG2-2.2.15 cells) | TC50 ([1]; 40% Human AB serum) | EC50 (HCV RNA replicon) (HCV RNA replicon; ET cell line, luciferase, 72 hr)
1 | CC(=O)O[C@@]12C[C@@H](C)[C@@]3(O)[C@@H](C=C(CO)C[C@]4(O)C(=O)C(C)=C[C@@H]34)[C@@H]1C2(C)C [SA-101A, 12-deoxyphorbol 13-acetate] | 17.3 µg/mL (≈ 44.3 µM) | greater than 50% | did not appear to be active or cytotoxic | no cytotoxicity |  | 
2 | CC(=O)OC12CC(C)C3(O)C(C=C(COC(=O)CCC(=O)O)CC4(O)C(=O)C(C)=CC43)C1C2(C)C (centres unmarked) [SA-101B, Prostratin Succinate] |  |  | did not display any appreciable cytotoxicity | no cytotoxicity | 21.0 µg/mL | EC50 was not reached
